What was measured:
[1] = target: T1, Urease (Type III from jack beans) (Canavalia ensiformis, UniProt P07374); assay: Ammonia odor detection on paper towel sheets treated with urea and urease solution; type: biochemical; conditions: paper towel sheet, 15 drops CuHEDTA Test Solution (urea 2M/tris + Cu/HEDTA complex solution 125 mM) + 2 drops urease solution; after 30 minutes at room temperature; smell
T1 construct: purchased Sigma U-1500
Method: In such a test, conventional paper towel sheets are treated with both a urea solution and a urease solution. One such sheet serves as a reference sheet; another such sheet is treated with a urease solution which also contains a complex of copper chelated with N-(2-hydroxyethyl)ethylenediamine triacetic acid. After 30 minutes at room temperature, the sheets are evaluated for detectable ammonia order.
Dissolve 2.42 g of trizma-base in about 80 mL H2O deionized, adjust the pH to 7.5 with HCL 1M, bring to 100 mL with H2O deionized.
Dissolve 6 g of Urea in 50 mL of this buffer 0.2M, pH 7.5
Dissolve 2.13 g of CuCl in 50 mL of H2O deionized.
Dissolve 2.15 g of HEDTA in 25 mL of H2O deionized
Cu/HEDTA complex solution (125 mM)
Mix 25 ml of CuCl2 solution (250 mM) with 25 mL HEDTA solution (250 mM)at adjusted with NaOH to pH around 7
Urease solution (10 mg/mL)
Weigh 0.020 g of urease and add 3 mL of tris buffer pH 7.5, 0.2M. This solution is stable for about 1 week provided it is stored at 4° C. in a refrigerator.
10 mL urea 2M/tris+500 mL of H2O deionized buffer.
10 mL Urea 2M/tris+500 mL Cu/TED complex solution buffer (125 mM)
Half of a white BOUNTY™® towel sheet is put in each of two Petri dishes. Into one dish, 15 drops of the reference solution are poured evenly so that the center of the towel sheet is evenly wet. […]

[2] = tested on: urine malodor; conditions: 5 mMol/liter solution, 250 ml sprayed once per day for 11 days over 4 m^2 (105 mg/m^2)
Method: A liquid product for treating hard surfaces is prepared and tested by spraying the product on walls, floors and other surfaces surrounding the urinals in a public men's restroom. Product preparation, use and test results are as follows:
A 5 mMol/liter solution of CuHEDTA is prepared from:
1721 mg of HEDTA (trisodium salt hydrate, MW=344.21);
1250 mg of CuSO4 (pentahydrate, MW=250);
1000 ml of deionized water.
Using a spray-gun, 250 ml of this solution is sprayed once per day for 11 days over a 4 m^2 area surrounding the urinals in a public men's restroom.

T1 sequence (P07374 whole entry, looked up): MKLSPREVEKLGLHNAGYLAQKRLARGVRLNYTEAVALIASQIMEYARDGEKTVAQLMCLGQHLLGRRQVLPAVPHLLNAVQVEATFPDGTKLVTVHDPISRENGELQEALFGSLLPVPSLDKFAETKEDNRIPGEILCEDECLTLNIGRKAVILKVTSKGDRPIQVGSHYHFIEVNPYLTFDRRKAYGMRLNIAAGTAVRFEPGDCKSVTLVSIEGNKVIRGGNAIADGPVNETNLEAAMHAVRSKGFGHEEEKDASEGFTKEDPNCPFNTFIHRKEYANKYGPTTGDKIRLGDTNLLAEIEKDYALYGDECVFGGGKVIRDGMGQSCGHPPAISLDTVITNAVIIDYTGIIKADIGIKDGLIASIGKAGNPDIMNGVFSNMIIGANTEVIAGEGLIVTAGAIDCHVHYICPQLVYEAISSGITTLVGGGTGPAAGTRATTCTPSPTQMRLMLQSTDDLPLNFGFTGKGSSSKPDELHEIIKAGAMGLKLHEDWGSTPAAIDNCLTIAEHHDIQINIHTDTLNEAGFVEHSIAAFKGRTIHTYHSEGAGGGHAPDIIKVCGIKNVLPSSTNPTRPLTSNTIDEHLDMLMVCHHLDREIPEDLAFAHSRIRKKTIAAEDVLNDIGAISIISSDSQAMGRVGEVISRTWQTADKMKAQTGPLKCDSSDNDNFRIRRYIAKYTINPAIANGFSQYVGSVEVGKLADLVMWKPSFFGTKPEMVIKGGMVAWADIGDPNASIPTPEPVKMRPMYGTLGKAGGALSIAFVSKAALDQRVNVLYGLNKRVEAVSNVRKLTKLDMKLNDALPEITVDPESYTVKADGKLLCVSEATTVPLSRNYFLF

O=C([O-])CN(CCN(CCO)CC(=O)O)CC(=O)[O-].[Cu+2] [CuHEDTA, copper salt of N-hydroxyethyl-ethylenediamine-triacetic acid]
detectable ammonia odor [1]: No ammonia odor is detectable
urine malodor control in the men's restroom [2]: effectively controlled for the full 11 day period
